Laboratory results reported in publication PMC9898036, “VIP152 is a selective CDK9 inhibitor with pre-clinical in vitro and in vivo efficacy in chronic lymphocytic leukemia” (Leukemia, 2022).
pIC50, pKi: −log10 of the molar value. Like-named read-outs stand apart in the source and are kept apart here.

What was measured:
CDKL5 = CDKL5 (Homo sapiens, UniProt O76039); test: KINOMEscan: CDKL5; assay type: binding; conditions: 1000 nM, read-out: Percent Control
FLT4 = FLT4 (Homo sapiens, UniProt P35916); test: KINOMEscan: FLT4; assay type: binding; conditions: 1000 nM, read-out: Percent Control
Sigma σ1 = target: T1, Sigma σ1 (Homo sapiens, UniProt Q99720); test: Eurofins Diversity Panel; assay type: binding; conditions: hum
T1 construct: purchased Eurofins
T1 sequence (Q99720 whole entry): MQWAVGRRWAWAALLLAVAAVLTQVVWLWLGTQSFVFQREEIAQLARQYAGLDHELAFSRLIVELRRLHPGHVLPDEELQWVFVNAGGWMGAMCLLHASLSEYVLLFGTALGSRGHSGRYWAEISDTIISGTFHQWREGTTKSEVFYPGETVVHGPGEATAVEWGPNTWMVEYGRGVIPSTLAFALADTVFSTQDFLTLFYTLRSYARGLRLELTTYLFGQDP

TNK2 = TNK2 (Homo sapiens, UniProt Q07912); test: KINOMEscan: TNK2; assay type: binding; conditions: 100 nM, read-out: Percent Control
DMPK2 = DMPK2 (Homo sapiens, UniProt Q6DT37); test: KINOMEscan: DMPK2; assay type: binding; conditions: 1000 nM, read-out: Percent Control
Histamine H1 = Histamine H1 (Homo sapiens, UniProt P35367); test: Eurofins Diversity Panel; assay type: binding; conditions: hum, Conc. 10 μM
KIT(L576P) = KIT(L576P) (Homo sapiens, UniProt P10721, L576P); test: KINOMEscan: KIT(L576P); assay type: binding; conditions: 1000 nM, read-out: Percent Control
KIT(L576P), sequence (P10721 26-976 L576P): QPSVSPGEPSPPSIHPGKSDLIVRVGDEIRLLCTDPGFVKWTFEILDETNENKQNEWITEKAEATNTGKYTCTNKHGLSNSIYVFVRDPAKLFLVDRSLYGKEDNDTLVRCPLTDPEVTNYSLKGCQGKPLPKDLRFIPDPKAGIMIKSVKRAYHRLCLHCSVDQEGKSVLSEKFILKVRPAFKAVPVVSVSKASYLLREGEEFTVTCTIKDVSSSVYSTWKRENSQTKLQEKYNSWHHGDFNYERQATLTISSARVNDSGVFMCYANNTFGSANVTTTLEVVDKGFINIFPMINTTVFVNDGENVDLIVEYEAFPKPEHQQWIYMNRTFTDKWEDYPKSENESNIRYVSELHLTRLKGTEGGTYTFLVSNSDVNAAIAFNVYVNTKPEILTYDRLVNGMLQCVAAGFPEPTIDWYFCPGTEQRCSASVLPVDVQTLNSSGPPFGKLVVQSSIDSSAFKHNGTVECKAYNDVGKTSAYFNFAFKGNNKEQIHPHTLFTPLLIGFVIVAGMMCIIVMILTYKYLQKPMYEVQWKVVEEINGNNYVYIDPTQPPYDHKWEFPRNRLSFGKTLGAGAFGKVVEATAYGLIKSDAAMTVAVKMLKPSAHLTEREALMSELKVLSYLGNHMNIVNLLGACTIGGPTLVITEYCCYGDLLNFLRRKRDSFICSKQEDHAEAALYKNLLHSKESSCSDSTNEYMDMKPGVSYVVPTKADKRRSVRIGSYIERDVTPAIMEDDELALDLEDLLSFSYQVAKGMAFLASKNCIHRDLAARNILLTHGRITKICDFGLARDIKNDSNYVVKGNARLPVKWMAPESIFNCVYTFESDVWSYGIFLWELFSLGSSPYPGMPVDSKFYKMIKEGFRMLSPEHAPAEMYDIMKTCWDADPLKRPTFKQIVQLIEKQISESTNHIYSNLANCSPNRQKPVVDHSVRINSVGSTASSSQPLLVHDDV

ARK5 = ARK5 (Homo sapiens, UniProt O60285); test: KINOMEscan: ARK5; assay type: binding; conditions: 1000 nM, read-out: Percent Control
AKT1 = AKT1 (Homo sapiens, UniProt P31749); test: KINOMEscan: AKT1; assay type: binding; conditions: 1000 nM, read-out: Percent Control
ERK1 = ERK1 (Homo sapiens, UniProt P27361); test: KINOMEscan: ERK1; assay type: binding; conditions: 1000 nM, read-out: Percent Control
TGFBR1 = TGFBR1 (Homo sapiens, UniProt P36897); test: KINOMEscan: TGFBR1; assay type: binding; conditions: 100 nM, read-out: Percent Control
TGFBR1, sequence (P36897 34-503): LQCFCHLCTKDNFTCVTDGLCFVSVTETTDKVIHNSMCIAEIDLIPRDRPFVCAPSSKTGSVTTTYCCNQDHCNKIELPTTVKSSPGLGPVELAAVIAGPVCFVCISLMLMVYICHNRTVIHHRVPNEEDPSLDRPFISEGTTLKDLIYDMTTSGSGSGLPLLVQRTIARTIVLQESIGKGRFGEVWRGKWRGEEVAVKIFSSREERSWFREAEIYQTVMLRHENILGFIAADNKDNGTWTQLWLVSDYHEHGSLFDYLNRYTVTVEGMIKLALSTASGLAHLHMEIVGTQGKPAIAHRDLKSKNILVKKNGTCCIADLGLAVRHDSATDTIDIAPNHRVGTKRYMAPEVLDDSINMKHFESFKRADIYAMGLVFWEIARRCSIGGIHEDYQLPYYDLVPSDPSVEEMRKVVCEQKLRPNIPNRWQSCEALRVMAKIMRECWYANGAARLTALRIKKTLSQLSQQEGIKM

STK39 = STK39 (Homo sapiens, UniProt Q9UEW8); test: KINOMEscan: STK39; assay type: binding; conditions: 100 nM, read-out: Percent Control
DCAMKL2 = DCAMKL2 (Homo sapiens, UniProt Q8N568); test: KINOMEscan: DCAMKL2; assay type: binding; conditions: 1000 nM, read-out: Percent Control
IKK-alpha = IKK-alpha (Homo sapiens, UniProt O15111); test: KINOMEscan: IKK-alpha; assay type: binding; conditions: 1000 nM, read-out: Percent Control
[1] = parameters: method as in PMID 35046056; conditions: human, cited from earlier work
DYRK1B = DYRK1B (Homo sapiens, UniProt Q9Y463); test: KINOMEscan: DYRK1B; assay type: binding; conditions: 1000 nM, read-out: Percent Control
DYRK1B, sequence (Q9Y463 whole entry): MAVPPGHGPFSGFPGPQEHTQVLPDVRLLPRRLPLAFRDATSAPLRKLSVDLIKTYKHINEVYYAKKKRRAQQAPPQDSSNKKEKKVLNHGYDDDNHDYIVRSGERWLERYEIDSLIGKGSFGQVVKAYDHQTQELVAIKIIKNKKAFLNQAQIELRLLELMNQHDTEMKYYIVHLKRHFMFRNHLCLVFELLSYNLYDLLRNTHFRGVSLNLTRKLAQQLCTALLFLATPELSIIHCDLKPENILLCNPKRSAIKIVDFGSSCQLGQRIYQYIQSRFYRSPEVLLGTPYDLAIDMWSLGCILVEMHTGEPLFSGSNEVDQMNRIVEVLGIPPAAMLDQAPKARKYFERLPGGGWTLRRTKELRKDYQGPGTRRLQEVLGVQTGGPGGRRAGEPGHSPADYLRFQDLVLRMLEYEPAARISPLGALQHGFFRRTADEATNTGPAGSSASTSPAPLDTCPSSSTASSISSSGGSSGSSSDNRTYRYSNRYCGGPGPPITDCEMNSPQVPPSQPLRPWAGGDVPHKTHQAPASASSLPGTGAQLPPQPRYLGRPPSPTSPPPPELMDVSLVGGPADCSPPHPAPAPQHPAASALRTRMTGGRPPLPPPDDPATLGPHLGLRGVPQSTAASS

MKNK2 = MKNK2 (Homo sapiens, UniProt Q9HBH9); test: KINOMEscan: MKNK2; assay type: binding; conditions: 1000 nM, read-out: Percent Control
Muscarinic M3 = Muscarinic M3 (Homo sapiens, UniProt P20309); test: Eurofins Diversity Panel; assay type: binding; conditions: hum, Conc. 10 μM
Muscarinic M3, sequence (P20309 whole entry): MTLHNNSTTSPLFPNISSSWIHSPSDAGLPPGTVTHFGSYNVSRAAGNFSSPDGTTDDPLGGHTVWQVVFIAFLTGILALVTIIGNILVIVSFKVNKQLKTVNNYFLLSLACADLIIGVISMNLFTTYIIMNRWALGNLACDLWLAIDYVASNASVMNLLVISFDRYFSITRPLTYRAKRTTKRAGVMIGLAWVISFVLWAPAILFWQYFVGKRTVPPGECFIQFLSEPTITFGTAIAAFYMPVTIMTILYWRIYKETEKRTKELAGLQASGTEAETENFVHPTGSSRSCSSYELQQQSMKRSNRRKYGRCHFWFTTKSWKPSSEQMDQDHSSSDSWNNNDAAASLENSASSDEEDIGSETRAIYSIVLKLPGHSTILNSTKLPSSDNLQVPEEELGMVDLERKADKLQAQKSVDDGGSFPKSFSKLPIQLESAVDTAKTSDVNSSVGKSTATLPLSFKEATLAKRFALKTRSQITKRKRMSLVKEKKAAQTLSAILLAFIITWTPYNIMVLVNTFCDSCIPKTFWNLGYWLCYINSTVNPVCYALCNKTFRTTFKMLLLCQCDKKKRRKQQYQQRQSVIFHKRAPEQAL

ANKK1 = ANKK1 (Homo sapiens, UniProt Q8NFD2); test: KINOMEscan: ANKK1; assay type: binding; conditions: 1000 nM, read-out: Percent Control
ANKK1, sequence (Q8NFD2 whole entry): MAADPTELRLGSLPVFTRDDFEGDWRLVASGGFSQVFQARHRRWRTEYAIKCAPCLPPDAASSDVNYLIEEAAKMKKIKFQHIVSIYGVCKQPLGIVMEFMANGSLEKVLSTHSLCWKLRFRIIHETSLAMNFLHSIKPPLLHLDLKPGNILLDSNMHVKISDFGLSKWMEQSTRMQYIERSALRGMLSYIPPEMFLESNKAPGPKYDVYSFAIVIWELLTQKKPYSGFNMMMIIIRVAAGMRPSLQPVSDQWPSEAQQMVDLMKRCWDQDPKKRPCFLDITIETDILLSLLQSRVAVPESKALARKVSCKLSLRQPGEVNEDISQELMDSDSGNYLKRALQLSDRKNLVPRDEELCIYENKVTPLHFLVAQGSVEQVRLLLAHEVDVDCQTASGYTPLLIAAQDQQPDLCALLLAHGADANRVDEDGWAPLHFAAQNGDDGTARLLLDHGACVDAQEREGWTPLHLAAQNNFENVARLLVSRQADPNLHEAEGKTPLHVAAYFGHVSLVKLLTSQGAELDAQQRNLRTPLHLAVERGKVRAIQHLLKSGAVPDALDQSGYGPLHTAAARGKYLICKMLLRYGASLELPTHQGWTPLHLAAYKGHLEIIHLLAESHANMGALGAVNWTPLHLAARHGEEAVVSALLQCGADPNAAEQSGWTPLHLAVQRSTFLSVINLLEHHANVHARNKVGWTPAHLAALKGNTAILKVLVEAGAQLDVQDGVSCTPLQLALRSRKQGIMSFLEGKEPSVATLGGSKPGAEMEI

[2] = tested on: C57BL/6 J mice engrafted with Eµ-MTCP1 splenocytes; test: Eµ-MTCP1 adoptive transfer murine CLL model; assay type: in vivo, mouse; conditions: 12.5mg/kg tail vein injection, every week
Procedure: All animal studies were carried out under protocols approved by The Ohio State University Institutional Animal Care and Use Committee (IACUC). Previously, 1 × 10^6 splenocytes from Eµ-MTCP1 mice, which recently were described to mimic human CLL, were resuspended in PBS and injected via tail vein into male C57BL/6 J from The Jackson Laboratory. Mice were monitored for development of peripheral disease by flow cytometry, measuring the percentage of CD5^+/CD19^+ cells in peripheral blood. Complete in vivo methods may be found in the supplementary material.
In vitro systems generally lack the full microenvironment that can lead to tumor cell resistance and survival. Next, we sought to assess the in vivo efficacy of VIP152 to better evaluate its potential clinical utility in patients with CLL. To accomplish this we used a novel transgenic model of CLL (Eµ-MTCP1 model) developed recently by our group that is characterized by CD5^+/CD19^+ and B220^Dim expansion in the blood. Splenocytes from diseased Eµ-MTCP1 mice were serially engrafted via tail vein injection and monitored for leukemia via weekly flow cytometry (Fig. 5A). Mice were randomized to vehicle versus VIP152 at the time blood disease was evident and treated every week until endpoint. […] Mice in the VIP152 treatment group had improved overall survival compared with vehicle with a median survival of 46 days vs 32 days respectively (Fig. 5D – p < 0.005). Following enrollment two mice had reduction in disease that was sustained below 10% for the duration of study and these mice were censored after 100 days upon which treatment was ceased. Two months following treatment cessation these mice succumbed to likely illness with evident splenomegaly. […]
Transcriptase. cDNA was immediately taken for qPCR using TaqMan Fast Advanced Master Mix using […]
Upon reaching 80% disease, these mice were euthanized and spleens were harvested. Splenocytes from a single donor were then used for the studies described here. 1 x 10^6 splenocytes were again injected via tail vein into male C57BL/6J mice and monitored via flow cytometry as previously described for development of disease as defined by ≥10% CD45+/CD5+/CD19+32. Upon reaching 10% disease, mice were randomly enrolled into one of two treatment arms: tail vein injection of 12.5mg/kg VIP152 dissolved in (30/10/60 v/v/v PEG400/EtOH/0.5% Tween-80 in water) or vehicle control.
Flow Cytometry analysis of blood […]
Anti-Mouse CD45R/B220 – cat. […] Data were analyzed using Kaluza Analysis Software (Beckman-Coulter v2.1).
Mass spectra from all samples (N = 12) were converted to mzML with ProteoWizard and OpenMS (v 2.5.0)30,31. Features from converted files were detected with Biosaur and searched on the OpenMS platform with […]

ASK2 = ASK2 (Homo sapiens, UniProt O95382); test: KINOMEscan: ASK2; assay type: binding; conditions: 1000 nM, read-out: Percent Control
ASK2, sequence (O95382 whole entry): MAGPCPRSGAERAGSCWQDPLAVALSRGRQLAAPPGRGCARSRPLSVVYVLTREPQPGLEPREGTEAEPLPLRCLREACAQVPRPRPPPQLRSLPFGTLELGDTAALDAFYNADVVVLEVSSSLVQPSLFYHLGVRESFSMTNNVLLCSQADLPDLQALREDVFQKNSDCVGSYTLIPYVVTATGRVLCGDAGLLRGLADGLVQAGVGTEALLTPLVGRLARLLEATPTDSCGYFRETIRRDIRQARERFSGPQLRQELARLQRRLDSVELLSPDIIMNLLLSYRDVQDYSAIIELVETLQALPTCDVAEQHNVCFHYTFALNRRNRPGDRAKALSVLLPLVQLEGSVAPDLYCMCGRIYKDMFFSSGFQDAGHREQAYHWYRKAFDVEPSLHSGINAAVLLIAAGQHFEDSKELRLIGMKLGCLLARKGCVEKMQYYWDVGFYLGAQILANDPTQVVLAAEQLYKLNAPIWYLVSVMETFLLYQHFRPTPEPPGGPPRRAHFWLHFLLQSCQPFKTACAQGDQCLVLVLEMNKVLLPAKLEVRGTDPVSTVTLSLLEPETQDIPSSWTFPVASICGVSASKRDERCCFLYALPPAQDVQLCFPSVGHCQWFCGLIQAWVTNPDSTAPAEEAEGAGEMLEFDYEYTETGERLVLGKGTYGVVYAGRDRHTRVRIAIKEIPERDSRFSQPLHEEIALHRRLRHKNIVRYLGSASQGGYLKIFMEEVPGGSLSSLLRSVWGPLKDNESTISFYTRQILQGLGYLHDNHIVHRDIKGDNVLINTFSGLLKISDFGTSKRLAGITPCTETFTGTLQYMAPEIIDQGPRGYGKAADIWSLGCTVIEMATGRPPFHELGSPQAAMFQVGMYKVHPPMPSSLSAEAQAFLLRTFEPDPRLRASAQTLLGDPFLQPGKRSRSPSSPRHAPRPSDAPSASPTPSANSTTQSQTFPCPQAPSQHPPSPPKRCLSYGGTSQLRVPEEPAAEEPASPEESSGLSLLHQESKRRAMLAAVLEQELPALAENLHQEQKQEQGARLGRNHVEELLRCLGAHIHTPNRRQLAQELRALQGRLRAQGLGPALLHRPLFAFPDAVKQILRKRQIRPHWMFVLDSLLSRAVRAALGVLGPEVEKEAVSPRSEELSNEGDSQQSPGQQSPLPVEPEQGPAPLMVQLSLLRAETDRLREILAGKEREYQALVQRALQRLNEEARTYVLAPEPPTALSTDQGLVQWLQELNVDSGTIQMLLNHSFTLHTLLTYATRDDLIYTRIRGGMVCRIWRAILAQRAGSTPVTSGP

[3] = target: RPS6KA5(Kin.Dom.1-N-terminal) (Homo sapiens, UniProt O75582); test: KINOMEscan: RPS6KA5(Kin.Dom.1-N-terminal); assay type: binding; conditions: 100 nM, read-out: Percent Control
DYRK2 = DYRK2 (Homo sapiens, UniProt Q92630); test: KINOMEscan: DYRK2; assay type: binding; conditions: 1000 nM, read-out: Percent Control

COc1cc(F)ccc1-c1cc(Nc2cc(CS(C)(=N)=O)ccn2)ncc1F (stereo not drawn) [VIP152]
remaining binding at 1 µM (CDKL5): 90% | remaining binding at 1 µM (FLT4): 74% | pIC50 (Sigma σ1): 5.75 | pKi (Sigma σ1): 6.12 | nH (Sigma σ1): 0.75 | inhibition at 10 µM (Sigma σ1; Conc. 10 μM): 71% | remaining binding at 0.1 µM (TNK2): 100% | remaining binding at 1 µM (DMPK2): 88% | inhibition at 10 µM (Histamine H1): 1% | remaining binding at 1 µM (KIT(L576P)): 72% | remaining binding at 1 µM (ARK5): 100% | remaining binding at 1 µM (AKT1): 99% | remaining binding at 1 µM (ERK1): 82% | remaining binding at 0.1 µM (TGFBR1): 100% | remaining binding at 0.1 µM (STK39): 100% | remaining binding at 1 µM (DCAMKL2): 96% | remaining binding at 1 µM (IKK-alpha): 93% | Cmax [1]: 836 ng/mL | Cmax ([1]; read-out: Cmax, corresponding concentration): 2000 nM | remaining binding at 1 µM (DYRK1B): 20% | remaining binding at 1 µM (MKNK2): 96% | inhibition at 10 µM (Muscarinic M3): 3% | remaining binding at 1 µM (ANKK1): 83% | weight loss [2]: did not observe any weight loss | median survival ([2]; vehicle 32 days): 46 days | CD5+/CD19+ disease burden in peripheral blood ([2]; vs vehicle): statistically significantly lower | spleen size and spleen disease burden at endpoint ([2]; vs vehicle): did not have significantly smaller spleens nor significant decrease in spleen disease burden | remaining binding at 1 µM (ASK2): 91% | remaining binding at 0.1 µM [3]: 100% | remaining binding at 1 µM (DYRK2): 62%
